Molecular target: GCN2 (Homo sapiens, UniProt Q9P2K8)
Test: GCN2 enzymatic endpoint assay: phosphorylation of GFP-eIF2α measured by TR-FRET (Lanthascreen)
Format: biochemical
Conditions: tested as described in Example 77; compound and/or hydrochloride, dihydrochloride or trifluoroacetic acid salt; read-out: IC 50 Activity
Procedure: The Enzymatic assay was run as an endpoint assay to quantify the activity of the serine/threonine GCN2 kinase by way of measuring phosphorylation of its natural substrate, eiF2α.
The enzymatic reaction was initiated by incubating with 2 μM ATP and 80 nM of GFP labeled eiF2a substrate at room temperature and then stopped after 90 minutes with EDTA. The amount of phosphorylated eIF2α is determined by TR-FRET (Lanthascreen). A terbium labeled antibody associates with the phosphorylated substrate resulting in an increased TR-FRET value. Activity was calculated as the ratio of the acceptor (fluorescein) signal at 520 nm wavelength to the donor (terbium) signal 495 nm. The amount of antibody that is bound to the tracer is directly proportional to the amount of phosphorylated substrate present, and in this manner, kinase activity can be detected and measured by an increase in the TR-FRET value.
Compound addition by D300
5 μL enzyme solution in assay buffer
5 μL substrate/ATP mixture in assay buffer
5 μL stop/detection mix in antibody dilution buffer

Sequence of GCN2 (Q9P2K8 whole entry): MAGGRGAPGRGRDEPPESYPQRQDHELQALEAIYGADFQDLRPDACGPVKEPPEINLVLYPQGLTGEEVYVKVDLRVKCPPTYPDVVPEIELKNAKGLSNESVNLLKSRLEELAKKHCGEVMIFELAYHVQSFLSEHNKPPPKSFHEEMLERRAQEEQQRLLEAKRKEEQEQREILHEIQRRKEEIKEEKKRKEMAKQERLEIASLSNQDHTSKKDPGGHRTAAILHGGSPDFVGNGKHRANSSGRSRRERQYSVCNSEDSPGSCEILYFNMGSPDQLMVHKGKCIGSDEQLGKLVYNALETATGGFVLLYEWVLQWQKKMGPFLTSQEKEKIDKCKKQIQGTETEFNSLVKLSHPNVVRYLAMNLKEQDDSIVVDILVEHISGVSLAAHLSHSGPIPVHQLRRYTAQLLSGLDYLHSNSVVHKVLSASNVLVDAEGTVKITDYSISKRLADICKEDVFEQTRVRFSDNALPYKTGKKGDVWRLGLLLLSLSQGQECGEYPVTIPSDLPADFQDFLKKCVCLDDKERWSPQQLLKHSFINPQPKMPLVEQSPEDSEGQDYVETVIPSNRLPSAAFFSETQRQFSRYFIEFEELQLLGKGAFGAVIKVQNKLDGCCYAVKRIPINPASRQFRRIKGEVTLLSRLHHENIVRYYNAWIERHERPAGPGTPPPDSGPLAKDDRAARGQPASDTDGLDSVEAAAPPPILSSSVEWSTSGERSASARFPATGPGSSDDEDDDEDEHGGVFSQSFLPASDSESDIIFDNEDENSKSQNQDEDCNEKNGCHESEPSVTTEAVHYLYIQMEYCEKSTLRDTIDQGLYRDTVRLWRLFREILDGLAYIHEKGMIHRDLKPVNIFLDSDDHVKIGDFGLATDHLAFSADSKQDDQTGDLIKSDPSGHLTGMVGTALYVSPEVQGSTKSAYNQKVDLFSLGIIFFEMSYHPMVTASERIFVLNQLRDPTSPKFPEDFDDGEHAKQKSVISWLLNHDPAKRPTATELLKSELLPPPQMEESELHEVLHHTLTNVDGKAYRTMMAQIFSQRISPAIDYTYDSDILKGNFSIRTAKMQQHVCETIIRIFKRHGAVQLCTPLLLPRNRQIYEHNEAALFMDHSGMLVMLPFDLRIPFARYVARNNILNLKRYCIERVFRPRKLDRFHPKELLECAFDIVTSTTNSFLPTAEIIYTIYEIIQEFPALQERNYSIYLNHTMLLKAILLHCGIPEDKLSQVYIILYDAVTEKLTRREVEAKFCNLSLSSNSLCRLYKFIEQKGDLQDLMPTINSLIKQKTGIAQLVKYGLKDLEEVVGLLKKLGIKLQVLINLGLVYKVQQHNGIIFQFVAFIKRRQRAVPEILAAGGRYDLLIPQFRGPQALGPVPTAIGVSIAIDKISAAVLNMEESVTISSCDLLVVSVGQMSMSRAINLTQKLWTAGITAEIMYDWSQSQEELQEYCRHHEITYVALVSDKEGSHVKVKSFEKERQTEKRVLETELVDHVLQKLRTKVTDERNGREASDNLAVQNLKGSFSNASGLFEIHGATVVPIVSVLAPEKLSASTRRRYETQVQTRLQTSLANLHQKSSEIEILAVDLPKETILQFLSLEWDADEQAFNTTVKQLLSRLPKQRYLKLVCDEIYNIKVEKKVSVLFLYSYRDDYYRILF

Row | SMILES | IC50
1 | CNC(=O)[C@]1(C)CC[C@@H](Nc2ncc3c(Br)nn(-c4ccc5nc(N6CCN(C(C)=O)CC6)ncc5c4)c3n2)C1 | 25 to 200 nM
2 | CC1(CNC(=O)[C@@H]2CC[C@@H](Nc3ncc4c(Br)nn(-c5ccc6ncccc6c5)c4n3)C2)COC1 [(1R,3R)-3-((3-bromo-1-(quinolin-6-yl)-1H-pyrazolo[3,4-d]pyrimidin-6-yl)amino)-N-((3-methyloxetan-3-yl)methyl)cyclopentane-1-carboxamide] | 200 to 500 nM
3 | CS(=O)(=O)CCNC(=O)[C@@H]1CC[C@@H](Nc2ncc3c(Br)nn(-c4cc(C(F)F)c5ncccc5c4)c3n2)C1 [(1R,3R)-3-((3-bromo-1-(8-(difluoromethyl)quinolin-6-yl)-1H-pyrazolo[3,4-d]pyrimidin-6-yl)amino)-N-(2-(methylsulfonyl)ethyl)cyclo-pentane-1-carboxamide] | 200 to 500 nM
4 | CS(=O)(=O)CCNC(=O)[C@@H]1CC[C@@H](Nc2ncc3c(Br)nn(-c4cnn(-c5ccncc5)c4)c3n2)C1 [(1R,3R)-3-((3-bromo-1-(1-(pyridin-4-yl)-1H-pyrazol-4-yl)-1H-pyrazolo[3,4-d]pyrimidin-6-yl)amino)-N-(2-(methylsulfonyl)ethyl)cyclo-pentane-1-carboxamide] | 200 to 500 nM
5 | CN1CCN(C(=O)[C@@H]2CC[C@@H](Nc3ncc4c(Br)nn(-c5cnc6c(Cl)nccc6c5)c4n3)C2)CC1=O [4-((1R,3R)-3-((3-bromo-1-(8-chloro-1,7-naphthyridin-3-yl)-1H-pyrazolo[3,4-d]pyrimidin-6-yl)amino)cyclopentane-1-carbonyl)-1-methylpiperazin-2-one] | 25 to 200 nM
6 | CNC(=O)[C@]1(C)CC[C@@H](Nc2ncc3c(Br)nn(-c4ccc(-c5nncs5)cc4)c3n2)C1 | 25 to 200 nM
7 | CNC(=O)[C@]1(C)CC[C@@H](Nc2ncc3c(Br)nn(-c4ccc(-c5nnc(C)s5)nc4)c3n2)C1 | 25 to 200 nM
8 | CNC(=O)[C@]1(C)CC[C@@H](Nc2ncc3c(Br)nn(-c4ccc(-c5nnc(C)s5)c(OCC#N)c4)c3n2)C1 [(1R,3R)-3-[[3-bromo-1-[3-(cyanomethoxy)-4-(5-methyl-1,3,4-thiadiazol-2-yl)phenyl]pyrazolo[3,4-d]pyrimidin-6-yl]amino]-N,1-dimethyl-cyclopentanecarboxamide] | 25 to 200 nM
9 | Cc1nnc(-c2ccc(-n3nc(Br)c4cnc(NC5CC(P(C)(C)=O)C5)nc43)cc2CCC#N)s1 (stereo not shown) [3-[5-[3-bromo-6-[(3-dimethylphosphoryl-cyclobutyl)amino]pyrazolo[3,4-d]pyrimidin-1-yl]-2-(5-methyl-1,3,4-thiadiazol-2-yl)phenyl]propanenitrile] | 25 to 200 nM
10 | CNC(=O)[C@]1(C)CC[C@@H](Nc2ncc3c(Br)nn(-c4cc(Cl)c(F)c(CO)c4)c3n2)C1 [(1R,3R)-3-[[3-bromo-1-[3-chloro-4-fluoro-5-(hydroxymethyl)phenyl]pyrazolo[3,4-d]pyrimidin-6-yl]amino]-N,1-dimethyl-cyclopentanecarboxamide] | 25 to 200 nM
11 | O=C(N[C@H]1C[C@H](O)C1)[C@@H]1CC[C@@H](Nc2ncc3c(Br)nn(-c4cc(F)c5ncccc5c4)c3n2)C1 | 25 to 200 nM
12 | CNC(=O)[C@]1(C)CC[C@@H](Nc2ncc3c(Br)nn(-c4ccc5c(c4)[C@H](NS(C)(=O)=O)CC5)c3n2)C1 [(1R,3R)-3-[[3-bromo-1-[(3R)-3-(methanesulfonamido)indan-5-yl]pyrazolo [3,4-d]pyrimidin-6-yl]amino]-N,1-dimethyl-cyclopentanecarboxamide] | 25 to 200 nM
13 | CNC(=O)[C@]1(C)CC[C@@H](Nc2ncc3c(Br)nn(-c4cc(Cl)c(F)c(CS(C)(=O)=O)c4)c3n2)C1 | 25 to 200 nM
14 | CNC(=O)[C@]1(C)CC[C@@H](Nc2ncc3c(Br)nn(-c4cc5cccnc5cn4)c3n2)C1 [(1R,3R)-3-[[3-bromo-1-(1,7-naphthyridin-6-yl)pyrazolo[3,4-d]pyrimidin-6-yl]amino]-N,1-dimethyl-cyclopentane-carboxamide] | 25 to 200 nM
15 | CN1CCC2(CCN(C(=O)[C@@H]3CC[C@@H](Nc4ncc5c(Br)nn(-c6cc(F)c7ncccc7c6)c5n4)C3)C2)C1=O (stereo partly drawn) [7-((1R,3R)-3-((3-bromo-1-(8-fluoroquinolin-6-yl)-1H-pyrazolo[3,4-d]pyrimidin-6-yl)amino)cyclopentane-1-carbonyl)-2-methyl-2,7-diazaspiro[4.4]nonan-1-one] | 25 to 200 nM

The next lines start with the values.

Row | IC50 | SMILES
16 | 25 to 200 nM | C[C@@H]1COCCN1C(=O)[C@@H]1CC[C@@H](Nc2ncc3c(Br)nn(-c4ccc5ncccc5c4)c3n2)C1 [((1R,3R)-3-((3-bromo-1-(quinolin-6-yl)-1H-pyrazolo[3,4-d]pyrimidin-6-yl)amino)cyclo-pentyl)((R)-3-methylmorpholino)methanone]
17 | 25 to 200 nM | CNC(=O)[C@]1(C)CC[C@@H](Nc2ncc3c(Br)nn(-c4cccc(NC(=O)c5ccn[nH]5)c4)c3n2)C1 [N-[3-[3-bromo-6-[[(1R,3R)-3-methyl-3-(methylcarbamoyl)cyclopentyl]amino]pyrazolo[3,4-d]pyrimidin-1-yl]phenyl]-1H-pyrazole-5-carboxamide]
18 | 25 to 200 nM | CNC(=O)[C@@H]1CC[C@@H](Nc2ncc3c(Br)nn(-c4ccc5c(C)nn(C)c5c4)c3n2)C1 [(1R,3R)-3-[[3-bromo-1-(1,3-dimethylindazol-6-yl)pyrazolo[3,4-d]pyrimidin-6-yl]amino]-N-methyl-cyclopentanecarboxamide]
19 | 25 to 200 nM | N#Cc1cc(-n2nc(Br)c3cnc(N[C@@H]4CC[C@@H](C(=O)NC5CCS(=O)(=O)CC5)C4)nc32)cc2cccnc12 [(1R,3R)-3-((3-bromo-1-(8-cyanoquinolin-6-yl)-1H-pyrazolo[3,4-d]pyrimidin-6-yl)amino)-N-(1,1-dioxidotetrahydro-2H-thiopyran-4-yl)cyclopentane-1-carboxamide]
20 | 25 to 200 nM | CNC(=O)[C@]1(C)CC[C@@H](Nc2ncc3c(Br)nn(-c4ccc(-c5cccnc5)c(CN)c4)c3n2)C1 [(1R,3R)-3-[[1-[3-(aminomethyl)-4-(3-pyridyl)phenyl]-3-bromo-pyrazolo[3,4-d]pyrimidin-6-yl]amino]-N,1-dimethyl-cyclopentane-carboxamide]
21 | 25 to 200 nM | CNC(=O)[C@]1(C)CC[C@@H](Nc2ncc3c(Br)nn(-c4cc(CCCN)c5ncccc5c4)c3n2)C1 [(1R,3R)-3-[[1-[8-(3-aminopropyl)-6-quinolyl]-3-bromo-pyrazolo[3,4-d]pyrimidin-6-yl]amino]-N,1-dimethyl-cyclopentanecarboxamide]
22 | < 25 nM | CC(C)(NC(=O)[C@@H]1CC[C@@H](Nc2ncc3c(Br)nn(-c4cc(C#N)c5ncccc5c4)c3n2)C1)C(N)=O
23 | 25 to 200 nM | O=C([C@@H]1CC[C@@H](Nc2ncc3c(Br)nn(-c4ccc5ncccc5c4)c3n2)C1)N1CCN(CCO)CC1 [((1R,3R)-3-((3-bromo-1-(quinolin-6-yl)-1H-pyrazolo[3,4-d]pyrimidin-6-yl)amino)cyclopentyl)(4-(2-hydroxyethyl)piperazin-1-yl)methanone]
24 | < 25 nM | N#Cc1cc(-n2nc(Br)c3cnc(N[C@@H]4CC[C@@H](C(=O)N5CCNC(=O)C5)C4)nc32)cc2cccnc12 [6-(3-bromo-6-(((1R,3R)-3-(3-oxopiperazine-1-carbonyl)cyclopentyl)amino)-1H-pyrazolo [3,4-d]pyrimidin-1-yl)quinoline-8-carbonitrile]
25 | 25 to 200 nM | CNC(=O)[C@]1(C)CC[C@@H](Nc2ncc3c(Br)nn(-c4ccc5ncc(NC(=O)CCOC)cc5c4)c3n2)C1 [(1R,3R)-3-[[3-bromo-1-[3-(3-methoxy-propanoylamino)-6-quinolyl]pyrazolo[3,4-d]pyrimidin-6-yl]amino]-N,1-dimethyl-cyclopentanecarboxamide]
26 | 25 to 200 nM | CNC(=O)[C@]1(C)CC[C@@H](Nc2ncc3c(Br)nn(-c4ccc(-c5ncco5)c(C(C)(C)C#N)c4)c3n2)C1 [(1R,3R)-3-[[3-bromo-1-[3-(1-cyano-1-methyl-ethyl)-4-oxazol-2-yl-phenyl]pyrazolo[3,4-d]pyrimidin-6-yl]amino]-N,1-dimethyl-cyclopentanecarboxamide]
27 | < 25 nM | CNC(=O)[C@]1(C)CC[C@@H](Nc2ncc3c(Br)nn(-c4ccc(-c5nnc(C(C)(C)N)o5)c(C#N)c4)c3n2)C1 [(1R,3R)-3-[[1-[4-[5-(1-amino-1-methyl-ethyl)-1,3,4-oxadiazol-2-yl]-3-cyano-phenyl]-3-bromo-pyrazolo[3,4-d]pyrimidin-6-yl]amino]-N,1-dimethyl-cyclopentanecarboxamide]
28 | 25 to 200 nM | CNC(=O)[C@]1(C)CC[C@@H](Nc2ncc3c(Br)nn(-c4cc(CC#N)c5nccnc5c4)c3n2)C1 [(1R,3R)-3-[[3-bromo-1-[8-(cyanomethyl)quinoxalin-6-yl]pyrazolo[3,4-d]pyrimidin-6-yl]amino]-N,1-dimethyl-cyclopentane-carboxamide]
29 | 25 to 200 nM | CNC(=O)[C@]1(C)CC[C@@H](Nc2ncc3c(Br)nn(-c4ccc5c(c4)CCC(=O)N5CCO)c3n2)C1 [(1R,3R)-3-[[3-bromo-1-[1-(2-hydroxy-ethyl)-2-oxo-3,4-dihydroquinolin-6-yl]pyrazolo[3,4-d]pyrimidin-6-yl]amino]-N,1-dimethyl-cyclopentanecarboxamide]
30 | 25 to 200 nM | O=C([C@@H]1CC[C@@H](Nc2ncc3c(Br)nn(-c4cc(F)c5ncccc5c4)c3n2)C1)n1ccc(C(F)(F)F)n1 [((1R,3R)-3-((3-bromo-1-(8-fluoroquinolin-6-yl)-1H-pyrazolo[3,4-d]pyrimidin-6-yl)amino)cyclopentyl)(3-(trifluoromethyl)-1H-pyrazol-1-yl)methanone]
31 | < 25 nM | CNC(=O)[C@@H]1CC[C@@H](Nc2ncc3c(Br)nn(-c4cc(C#N)c5ncccc5c4)c3n2)C1 [(1R,3R)-3-((3-bromo-1-(8-cyanoquinolin-6-yl)-1H-pyrazolo[3,4-d]pyrimidin-6-yl)amino)-N-methylcyclopentane-1-carboxamide]
